We go through eleven compounds from US8524744B2, “Arylamine ketones, their preparation methods, the pharmaceutical composition containing them and their use” (Institute of Mataria Medica, Chinese Academy of Medical …, priority 2004, dated 2013).

What is called melting point is the temperature of the solid-liquid transition. One may read the IC50 as the midpoint of a concentration-inhibition curve. The term Ki denotes the equilibrium dissociation constant of an inhibitor or competing ligand from its target.

Counter-ions that a name gives are not always drawn.

Series [1] has as its system cutaneous vascular permeability in mice induced by PAF. Description: increase of cutaneous vascular permeability in mice induced by PAF. Type of series: in vivo, mouse. The note with it: orally, 50 mg·kg^−1, Kunming mice. How it is done: Kunming mice (male, 18-22 g) were randomly divided into two groups (treatment and control) with 10 animals for each group. The animals were orally administrated with the compounds or solvent, respectively. 1 hr later, 0.25 ml of 1% evans blue dye was injected into the tail vein. After 10 min, 0.1 ml of PAF (1×10^−8 mol·L^−1) was intracutaneously injected into the dorsal skin shaved. 1 hr later, the animals were sacrificed by cervical vertebra displacement. The skin with blue spot was cut off. The evans blue dye was extracted by 0.8 ml of mixed solution of acetone and normal saline (7:3). The supernatant was transferred into the 96-well plate. The optical density was measured at 620 nm.

In series [2] the test system is production of TNF-α by macrophages from mouse peritoneal cavity. Description: production of TNF-α by macrophages from mouse peritoneal cavity (LPS, L929 bioassay). The format is cell-based. The note with it: Macrophage, 24 h, read-out: IC50, inhibition of the production of TNF-α. How it is done:
The macrophages from mouse peritoneal cavity were prepared as described before. 500 μl of cells were inoculated in 48-well plate which was incubated with 5% CO2 at 37° C. for 2.5 hr. The compounds and LPS (final concentration: 10 μg·ml^−1) were added into each well of the plate. After incubating for 24 hr the supernatant was collected. The content of TNF-α was determined by following method. 100 μl of L929 cells (2×10^5cells·ml^−1) with 100 μl of RPMI-1640 or supernatant collected above were inoculated into 96-well plate which incubated under 5% CO2 at 37° C. for 20 hr. The supernatant was discarded. 200 μl of 0.5% crystal violet was added into each well. 10 min later crystal violet outside of the cells was rinsed using normal saline. The cells were dried under room temperature. 100 μl of 10% SDS was added into each well. After the cells were lysed completely the optical density was measured at 570 nm. The well of 1640 media was as the control, The content of TNF-a was evaluated by the percentage of L929 cells survival.

Series [3] relates to macrophages from mouse peritoneal cavity. Description: chemotaxis of macrophages from mouse peritoneal cavity induced by PAF. The format is cell-based. The note with it: Macrophage, 2 hr, read-out: IC50, inhibition of chemotaxis. On the procedure:
4% of sodium mercaptoethanol was injected into C57BL/6 mouse peritoneal cavity to induce macrophages. The cells in peritoneal cavity were collected after injection for 3-4 days. 27 μl of irritant was added into the well at low part of the chemotaxis plate. The filter membrane was covered on the wells and the top part of the plate was assembled on the filter. 55 μl of cells suspension with various concentrations of the compounds or solvent was added into the well at top part of the plate. The plate was placed into incubater with 5% CO2 at 37° C. for 2 hr. The filter was taken out, stained by hematoxylin and dehydrated. The cells migrated into the other side of the filter was counted by microscope.

The subject of series [4] is mouse paw swelling induced by carrageenan. Put plainly: mouse paw swelling induced by carrageenan. The note with it: orally, 50 mg·kg^−1, Kunming mice. The format is in vivo. How it is done:
Kunming mice (male, 18-22 g) were randomly divided into two groups (treatment and control) with 10 animals for each group. The animals were orally administrated with compounds or solvent, respectively. 1 hr later, 50 μl of 1% carrageenan was intracutaneously injected into the sole of right posterior foot. After 4 hr the animals were sacrificed by displacing cervical vertebra. The two paws were cut off at ankle joint and weighed. The swelling was evaluated by the difference of the weights of two paws.

Series [5] addresses T1, PAF receptors of macrophages from mouse peritoneal cavity (Mus musculus, UniProt Q62035).
T1 construct: The cells in peritoneal cavity were collected after injection for 3-4 days; endogenous in cells; host or cells: adherent peritoneal macrophages of C57BL/6 mice (primary)
Put plainly: competitive binding of [3H]-PAF to its receptors of macrophages from mouse peritoneal cavity. As to conditions: 4° C, 150 min, read-out: Ki, competition with [3H]-PAF binding. How it is done: 4% of sodium mercaptoethanol was injected into C57BL/6 mouse peritoneal cavity to induce macrophages. The cells in peritoneal cavity were collected after injection for 3-4 days. 500 μl of suspension (5×10^5cells·ml^−1) was inoculated into 24-well culture plate which was placed into the incubator with 5% CO2 at 37° C for 2.5 hr. The non-adherent cells and serum in media were discarded. 490 μl of Tyrode-Hepes solution and 5 μl of [^3H]-PAF (final concentration: 2.8 nmol·L^−1) were added into each well. 5 μl of unlabeled PAF (5 μmol·L^1) was added into the well for the nonspecific binding. The series concentrations of compound were added into the well for the competitive binding and the corresponding volume of solvent was added into the wells for the total binding or the nonspecific binding. The reaction fluid was incubated at 4° C for 150 min and rinsed to wipe off the free labeled ligand. 300 μl of NaOH (0.3 mol·L^−1) was added to lyse the cells. The lysate fluid was transferred into a vial in which 7 ml of scintillation solution was added. The radioactivity strength was measured by scintillation counter.

The subject of series [6] is production of NO in macrophages from mouse peritoneal cavity. Description: production of NO in macrophages from mouse peritoneal cavity (LPS and PAF). The format is cell-based. As to conditions: Macrophage, 24 h, read-out: IC50, inhibition of the production of NO. How it is done: 4% of sodium mercaptoethanol was injected into C57BL/6 mouse peritoneal cavity to induce macrophages. The cells in peritoneal cavity were collected after injection for 3-4 days. 500 μl of cells were inoculated in the well of 24 wells plate which was placed in the CO2 incubator at 37° C. for 2.5 hr to make the cells adherent. The cells were rinsed by 1640 culture media. 495 μl of 1640 media containing irritant and 5 μl the compound or solvent were added into each well. The plate was incubated for 24 hr. The supernatant was taken out and mixed with the same volume of Griess agent. The reaction fluid was kept at room temperature for 10 min and the optical density was measured at 550 nm. The numbers read was transferred into the content of NO.

Series [7] has as its system mouse ear edema induced by croton oil. Put plainly: mouse ear edema induced by croton oil. The format is in vivo. As to conditions: orally, 50 mg·kg^−1, Kunming mice. On the procedure:
Kuming mice (male, 18-22 g) were randomly divided into two groups (treatment and control) with 10 animals for each group. The animals were orally administrated with compounds or solvent, respectively. 1 hr later, 50 μl of 2% croton oil was smeared on the two sides of mouse left ear. After 4 hr the mice were sacrificed by cervical vertebra displacement. The two ears were cut off and the central sections were excised using a punch with a diameter of 8 mm and weighed. Edema was quantified as the weight difference between the two sections.

In series [8] the test system is polymorphonuclear leucocytes from rat pleural cavity. Description: release of β-glucuronidase by polymorphonuclear leucocytes from rat pleural cavity in vitro (PAF as irritant). As to conditions: for IC50: rat polymorphonuclear leucocytes. The format is cell-based. How it is done: 1% carrageenan was injected into the right pleural cavity of Wistar rat to induce polymorphonuclear leucocytes. The cells was suspended in Dulbecoo's buffer at the concentration of 2.5×10^6 cells·ml^1. The fluid containing the compound or solvent and 250 μl of cells suspension were added in test tube and incubated in 37° C. waterbath for 15 min. Then 2.5 μl of cytochalasin B (1×10^−3 mol·L^−1) was added and the reaction was continued for 5 min. Then 2.5 μl of PAF (1×10^−4 mol·L^−1) was added and for another 5 min. The test tubes were put into ice bath to stop the reaction. The supernatant was isolated and used as the β-glucuronidase release fluid. 25 μl of the enzyme fluid, 25 μl of phenolphthalein-glucuronic acid (2.5 mmol·L^−1) and 100 μl of acetic acid buffer (0.1 mol·L^−1) were added into each well of 96-well plate which was placed into incubater and kept at 37° C.3 for 18 hr. 150 μl of NaOH (0.3 mol·L^−1) was added in each well to cease the reaction and the optical density was read at 550 nm.

The subject of series [9] is rat paw swelling. The note with it: induced by PAF, carrageenan, histamine, 5-serotonin; cited from earlier work.
Series [10] deals with rat neutrophils. Description: chemotaxis of rat neutrophils in vitro. Type of series: cell-based. As to conditions: Neutrophil, 4 hr, read-out: IC50, inhibition of chemotaxis. How it is done: The blood was collected from rat common carotid artery and anticoagulated. The neutrophils was isolated by 5% glucose solution and lymphocyte separating medium. 27 μl of irritant was added into the well at low part of the chemotaxis plate. The filter membrane was covered on the wells and the top part of the plate was assembled on the filter. 50 μl of cells suspension with various concentrations of compound or solvent was added into the well at top part of the plate. The plate was incubated at 37° C. for 4 hr. The filter was taken out, stained by hematoxylin and dehydrated. The cells migrated into the other side of the filter was counted by microscope.

Series [11] relates to patients with rheumatoid arthritis. As to conditions: after administration for 4 weeks; cited from earlier work.
Series [12] relates to mouse with arthritis induced by type III collagen. As to conditions: cited from earlier work.
Series [13] relates to NF-κB, TNF-α mRNA. The note with it: infected mice; cited from earlier work.
Setting [14] is: Dose 1 × 10^−5 mol · L^−1, Irritant 2 × 10^−7 mol · L^−1.

T1 sequence (Q62035 whole entry): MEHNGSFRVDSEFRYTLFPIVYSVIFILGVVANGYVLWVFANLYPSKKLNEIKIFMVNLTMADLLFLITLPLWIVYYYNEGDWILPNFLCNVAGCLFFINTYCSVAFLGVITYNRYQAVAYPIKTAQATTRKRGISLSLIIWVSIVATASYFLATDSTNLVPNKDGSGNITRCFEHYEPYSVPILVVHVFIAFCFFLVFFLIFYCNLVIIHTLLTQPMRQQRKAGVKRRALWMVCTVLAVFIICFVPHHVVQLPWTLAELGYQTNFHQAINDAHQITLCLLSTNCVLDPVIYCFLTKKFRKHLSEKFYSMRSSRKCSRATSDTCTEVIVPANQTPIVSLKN

`O=C(C=Cc1ccc(C(F)(F)F)cc1)CCN1CCC(Cc2ccccc2)CC1` (as salt: hydrochloride) [Compound 20, 5-[(4-Benzyl)piperidyl]-1-(4-trifluoromethylphenyl)-1-penten-3-one hydrochloride] registered a melting point of 175 to 179 °C.

Consider `CCOC(=O)C1CCN(CCC(=O)/C=C/c2ccc(Cl)cc2)CC1` (as salt: hydrochloride) [Compound 3, 5-[(4-Ethoxycarbonyl)piperidyl]-1-(4-chlorophenyl)-1-penten-3-one hydrochloride], for which the melting point lay in the range of 172 to 174 °C.

As to `CCOc1cc(C=CC(=O)CCN2CC(C)OC(C)C2)ccc1O` (stereo not drawn) [Compound 37, 5-(2,6-Dimethylmorpholinyl)-1-(3-ethoxy-4-hydroxyphenyl)-1-penten-3-one hydrochloride], in series [1], the “Inhibition (%) of increase of cutaneous vascular permeability” value was 38.70%. The half-maximal inhibitory concentration (IC50) came out at 2 nM in [2], 83.2 nM in series [3], 3.69 µM in [6] and 1.23 nM in series [8] (Leucocyte). Also, the “Inhibition (%) of mouse paw swelling” value in [4] was determined as 21.60%. For the same compound, the Ki in [5] is 68.3 µM. Further, in series [7], the “Inhibition (%) of mouse ear edema” value was determined as 33.20%. For the same compound, the “Inhibition (%) of β-glucuronidase release” value in series [8] (setting [14]) is listed as 79.24%.

In the case of `CCOC(=O)C1CCCN(CCC(=O)C=Cc2ccc(Cl)cc2Cl)C1.Cl` (stereo not drawn) [Compound 16, 5-[(3-Ethoxycarbonyl)piperidyl]-1-(2,4-dichlorophenyl)-1-penten-3-one hydrochloride], the “Inhibition (%) of increase of cutaneous vascular permeability” value in series [1] was determined as 48.09%. In series [7], the “Inhibition (%) of mouse ear edema” value is listed as 29.05%. Further, in series [8] (Dose 2 × 10^−6 mol · L^−1, Irritant 1 × 10^−7 mol · L^−1), the “Inhibition (%) of β-glucuronidase release” value is on record as 84.38%. Also, the IC50 in series [8] worked out at 22.4 nM.

The compound `COc1ccc(C=CC(=O)CCN2CC(C)OC(C)C2)cc1O` (stereo not drawn) (as salt: hydrochloride) [Compound 36, 5-(2,6-Dimethylmorpholinyl)-1-(3-hydroxy-4-methoxyphenyl)-1-penten-3-one hydrochloride] yielded a melting point of 194 to 196 °C.

Regarding `CCCCCCCCCCCCCCCCCCNC(=O)OCC(COC(=O)N(Cc1cccc[n+]1CC)C(C)=O)OC` (stereo not drawn) [CV-6209], in series [9], the rat paw swelling result is “inhibit”.

The compound `COc1ccc(C=CC(=O)CCN2CCC(Cc3ccccc3)CC2)cc1` (as salt: hydrochloride) [Compound 22a, 5-[(4-Benzyl)piperidyl]-1-(4-methoxyphenyl)-1-penten-3-one hydrochloride] displayed a melting point of 180 to 184 °C.

As to `COc1ccc(C=CC(=O)CCN2CCC(Cc3ccccc3)CC2)cc1` [Compound 22a, 5-[(4-Benzyl)piperidyl]-1-(4-methoxyphenyl)-1-penten-3-one hydrochloride], the “Inhibition (%) of increase of cutaneous vascular permeability” value in series [1] is listed as 51.14%. In addition, the figures for the half-maximal inhibitory concentration (IC50) in series [10] and in series [8] (Leucocyte) were 4.05 nM and 562 nM, respectively. In series [4], the “Inhibition (%) of mouse paw swelling” value came out at 23.33%. Also, in series [7], the “Inhibition (%) of mouse ear edema” value is on record as 31.22%. Further, in [8] (Dose 1 × 10^−5 mol · L^−1, Irritant 1 × 10^−6 mol · L^−1), the “Inhibition (%) of β-glucuronidase release” value amounted to 73.17%.

With `COc1ccc(NC(=S)N2CCc3c(sc4c3C(c3ccccc3Cl)=NCc3nnc(C)n3-4)C2)cc1` [BN50730], the “symptom of patients with rheumatoid arthritis” value in series [11] is “significantly improves”. In addition, in series [12], the “consumption of proteoglycan in cartilage” value is reported as “decrease”, the joint swelling entry is “significantly inhibit” and the “precipitation of fibronectin in cartilage” value was “decrease”. In series [13], the “early activity of NF-κB” value was “reduce” and the “expression of TNF-α mRNA” value is recorded as “reduce”.

The compound `CCOc1cc(C=CC(=O)CCN2CC(C)OC(C)C2)ccc1O` (stereo not drawn) (as salt: hydrochloride) [Compound 37, 5-(2,6-Dimethylmorpholinyl)-1-(3-ethoxy-4-hydroxyphenyl)-1-penten-3-one hydrochloride] registered a melting point of 198 to 201 °C.

As for `COc1ccc(C=CC(=O)CCN2CC(C)OC(C)C2)cc1O` (stereo not drawn) [Compound 36, 5-(2,6-Dimethylmorpholinyl)-1-(3-hydroxy-4-methoxyphenyl)-1-penten-3-one hydrochloride], the “Inhibition (%) of increase of cutaneous vascular permeability” value in series [1] was found to be 33.50%. Further, the IC50 in [2] was 45.8 nM; in [3], 44.8 nM; in [6], 3.23 µM; in series [8] (Leucocyte) it was 0.555 nM. Moreover, the “Inhibition (%) of mouse paw swelling” value in [4] was 28.00%. The inhibitory constant (Ki) in series [5] came out at 48.1 µM. Moreover, the “Inhibition (%) of β-glucuronidase release” value in series [8] (setting [14]) is listed as 129.72%.
